Values of other authors in patent US20230405076A1, “COMPOSITION COMPRISING AKKERMANSIA MUCINIPHILA AND GREEN TEA EXTRACT” (A-MANSIA BIOTECH, priority 2020, published 2023).

Tests used:
[1] = via EGCG promoted increase of Akkermansia muciniphila, Sheng 2018
[2] = tested on: Akkermansia genus in the Verrucomicrobia; details: high fat diet mice, Ushiroda 2019

Epigallocatechin-3-gallate
diet-increased obesity, visceral fat, and insulin resistance [1]: effectively reduces | abundance of the Akkermansia genus [2]: increase
